Legend:
[1] = system: Glc-6-Pase; conditions: intact rat microsomes; cited from earlier work
[2] = target: T1, Glc-6-Pase (Rattus norvegicus, UniProt P43428); conditions: fully disrupted microsomes; cited from earlier work
T1 construct: host or cells: rat microsomes (liver)
T1 sequence (P43428 1-357): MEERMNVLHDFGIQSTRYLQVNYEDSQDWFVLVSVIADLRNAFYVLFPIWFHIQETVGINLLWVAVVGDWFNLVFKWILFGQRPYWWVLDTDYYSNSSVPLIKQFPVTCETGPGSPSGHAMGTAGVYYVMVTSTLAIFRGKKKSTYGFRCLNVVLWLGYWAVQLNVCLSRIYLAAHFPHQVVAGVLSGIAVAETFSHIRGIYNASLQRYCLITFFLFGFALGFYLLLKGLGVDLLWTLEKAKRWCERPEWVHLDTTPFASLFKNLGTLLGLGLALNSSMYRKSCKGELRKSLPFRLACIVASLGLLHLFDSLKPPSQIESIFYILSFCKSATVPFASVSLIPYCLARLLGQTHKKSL

[3] = Plasma pharmacokinetics of CGA and metabolites after 400 mg green coffee extract, ten volunteers; assay type: in vivo, human
Source text: In a further phase of the study, ten non-smoker volunteers (22-55 y), five male and five female, were recruited. […] They were asked to eat only animal foods, refined cereal foods and artificial beverages. […] Blood samples were collected into heparin-containing tubes. Baseline blood aliquots were used to determine hematocrit and hemoglobin levels by standard methods. Plasma samples were obtained by centrifugation of the blood samples immediately after being drawn. Urine samples were also collected at baseline interval (minus 2-0 h) and at intervals of 0-2 h; 2-4 h; 4-6 h and 6-8 h after coffee consumption into appropriate plastic containers. Total urine volume was measured for each collection period. Plasma and urine aliquots for determination of CGA were acidified with HCl and kept frozen in liquid nitrogen until analyses. Urine aliquots for determination of creatinine were acidified with HCl and kept at −20° C. until analyses.
(§1) Results of CGA and phenolic acids in urine were normalized by creatinine excretion.

[4] = target: T2, hepatic Glc-6-Pase system (Homo sapiens, UniProt O43826); test: Glc-6-Pase hydrolysis in intact human liver microsomes (phosphate release); assay type: biochemical
T2 construct: Glc-6-Pase hydrolysis in intact human liver microsomes; tissue BD Biosciences; host or cells: pooled human liver microsomes, intact
T2 sequence (O43826 1-429): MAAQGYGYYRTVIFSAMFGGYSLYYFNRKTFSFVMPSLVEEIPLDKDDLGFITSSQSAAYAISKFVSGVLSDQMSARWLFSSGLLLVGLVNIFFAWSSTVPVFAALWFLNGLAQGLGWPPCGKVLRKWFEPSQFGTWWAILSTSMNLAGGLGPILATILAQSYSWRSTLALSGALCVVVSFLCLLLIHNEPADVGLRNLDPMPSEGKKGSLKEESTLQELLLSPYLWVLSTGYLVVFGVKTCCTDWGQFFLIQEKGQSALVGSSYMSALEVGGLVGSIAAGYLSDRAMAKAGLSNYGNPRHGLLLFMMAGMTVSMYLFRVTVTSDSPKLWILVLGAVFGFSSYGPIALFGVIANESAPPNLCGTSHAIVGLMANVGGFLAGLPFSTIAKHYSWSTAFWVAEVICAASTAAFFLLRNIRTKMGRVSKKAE
Experimental: A secondary purpose of Example 8 was to determine the inhibitory effects of a series of structurally-related compounds in the extract, such as caffeoylquinic acids and caffeoylferuloylquinic acids. Example 8 tested whether the extract could inhibit the hepatic Glc-6-Pase system by measuring enzymatic activity in human liver microsomes. These experiments were conducted with or without the extract at final CGA concentrations of 0.2, 0.4 and 0.6 mM. The effect of the extract on Glc-6-Pase activity was tested as a function of […] substrate concentration (2-10 mM).
Measurement of Glc-6-Pase Activity in Microsomes: Microsomal Glc-6-Pase activity was measured on the basis of the rate of release of phosphate under the assay conditions that were described by Wallert et al., Kinetic analysis of glucose-6-phosphatase: an investigative approach to carbohydrate metabolism and kinetics. Biochem. Mol. Biol. Educ. 2001, 29, 199-203. The enzyme assays were performed at 37° C. in a final volume of […] containing 100 mM cacodylic acid, pH 6.5 and concentrations of the substrate […] ranging from 2 to 10 mM.
The reaction was started by adding intact microsomes and was stopped with the addition of 3.2 mL of colorimetric reagent [9 volumes of molybdate (0.42% ammonium molybdate in 1 N H2SO4), 2 volumes of 5% SDS and 1 volume of 10% ascorbic acid, freshly prepared and stored on ice for a maximum of 6 h]. All samples were incubated for 30 minutes at 45° C., and the absorbance of the phosphate-molybdate complex was measured at 820 nm.
Microsomal intactness was quantified by measuring Man-6-Pase activity. Anion, W J. Measurement of intactness of rat liver endoplasmic reticulum. Methods Enzymol. 1989, 174, 58-67. In a preliminary study, Glc-6-Pase activity in intact human liver microsomes was determined on the basis of microsomal protein concentration and incubation time to obtain optimal experimental conditions, that is, 100 μg of microsomal proteins and 5 minutes of incubation (data not shown). Quantification was performed at optimal wavelengths (330 nm) for the CGAs during chromatographic separation. Samples were filtered (0.45 μm), and 2 μL was injected directly. The standard deviation for three analyses of the same sample was <5% for all compounds.
Preparation of Test Compounds: Stock solutions of test compounds were prepared in ultrapure water (pH 6.5) and diluted with assay reagent to the final concentrations.
Enzymatic activity was expressed as micromoles of phosphate released per minute per milligram of protein. Results were expressed as means±standard deviation (SD) of three independent experiments. Percentage of inhibition of Glc-6 Pase system activity was calculated by dividing the initial rate of reaction in microsomes that were treated with individual compounds by the initial rate of reaction in untreated microsomes. […] Statistical analysis was performed using an ANOVA test followed by a post hoc Tukey test under a normality assumption (Shapiro Wilk) or Kruskall Wallis nonparametric test followed by Bonferroni adjusted Mann-Whitney test otherwise; p<0.05 was considered to be significant. […]

[5] = Urinary excretion of CGA and metabolites after 400 mg green coffee extract, ten volunteers; assay type: in vivo, human; conditions: both, human, in vivo
Experimental: In a further phase of the study, ten non-smoker volunteers (22-55 y), five male and five female, were recruited. Subjects were instructed to avoid consumption of phenolic-containing foods during the 48 h prior to the study. They were asked to eat only animal foods, refined cereal foods and artificial beverages. On the day of the study, after 10-12 h overnight fasting, an I.V. catheter was inserted into the antecubital vein and a baseline heparinized blood sample was obtained. […] Blood samples were collected into heparin-containing tubes. Baseline blood aliquots were used to determine hematocrit and hemoglobin levels by standard methods. Plasma samples were obtained by centrifugation of the blood samples immediately after being drawn. Urine samples were also collected at baseline interval (minus 2-0 h) and at intervals of 0-2 h; 2-4 h; 4-6 h and 6-8 h after coffee consumption into appropriate plastic containers. Total urine volume was measured for each collection period. Plasma and urine aliquots for determination of CGA were acidified with HCl and kept frozen in liquid nitrogen until analyses. Urine aliquots for determination of creatinine were acidified with HCl and kept at −20° C. until analyses.
as §1

[6] = plasma, 400 mg green coffee extract oral, mean ± SD, n = 10

Compound: O=C(C=Cc1ccc(O)c(O)c1)OC1CC(O)(C(=O)O)CC(O)C1O (stereo not shown) [5-CQA, 5-caffeoylquinic acid]
- inhibition of Glc-6-Pase [1]: inhibits Glc-6-Pase
- inhibition of Glc-6-Pase [2]: no effect
- contribution to AUC of total phenolic compounds in plasma ([3]; mean values of plasma AUC): 31.3%
- AUC [3, 6]: 17.9 ± 15.3 µM·h
- Cmax [3, 6]: 5.9 ± 4.2 µM
- Tmax [3, 6]: 3.3 ± 2.4 h
- molar ratio 5-CQA:4-CQA:3-CQA in plasma ([3]; ratios of AUC in plasma): 6.0
- Percentage inhibition of G6Pase ([4]; each compound at its naturally occurring concentration in 0.6 mM extract, 2 mM substrate): 9.2 ± 1.4%
- Contribution to Glc-6-Pase system inhibition by the green coffee extract ([4]; inhibition of compound divided by inhibition of 0.6 mM total CGAs from the extract): 25%
- content in baseline urine, variation among the subjects [5]: up to 0.35 μmol

Reference: patent US10092613B2 (NATUREX, S.A., priority 2008, dated 2018)
